The text below walks through data of article PMC5824344 (ACS Chemical Biology, 2017).

Experiment [1] deals with DENV2 strain 16681 in primary human MDMΦ. On the set-up: method as in PMID 23070155. Particulars: MDMΦ cells, same system; read-out: IC50 for DENV inhibition; cited from earlier work.
Experiment [2] deals with T1, Rat intestinal cellobiase (Rattus norvegicus, UniProt Q02401).
T1 sequence (Q02401 868-1928): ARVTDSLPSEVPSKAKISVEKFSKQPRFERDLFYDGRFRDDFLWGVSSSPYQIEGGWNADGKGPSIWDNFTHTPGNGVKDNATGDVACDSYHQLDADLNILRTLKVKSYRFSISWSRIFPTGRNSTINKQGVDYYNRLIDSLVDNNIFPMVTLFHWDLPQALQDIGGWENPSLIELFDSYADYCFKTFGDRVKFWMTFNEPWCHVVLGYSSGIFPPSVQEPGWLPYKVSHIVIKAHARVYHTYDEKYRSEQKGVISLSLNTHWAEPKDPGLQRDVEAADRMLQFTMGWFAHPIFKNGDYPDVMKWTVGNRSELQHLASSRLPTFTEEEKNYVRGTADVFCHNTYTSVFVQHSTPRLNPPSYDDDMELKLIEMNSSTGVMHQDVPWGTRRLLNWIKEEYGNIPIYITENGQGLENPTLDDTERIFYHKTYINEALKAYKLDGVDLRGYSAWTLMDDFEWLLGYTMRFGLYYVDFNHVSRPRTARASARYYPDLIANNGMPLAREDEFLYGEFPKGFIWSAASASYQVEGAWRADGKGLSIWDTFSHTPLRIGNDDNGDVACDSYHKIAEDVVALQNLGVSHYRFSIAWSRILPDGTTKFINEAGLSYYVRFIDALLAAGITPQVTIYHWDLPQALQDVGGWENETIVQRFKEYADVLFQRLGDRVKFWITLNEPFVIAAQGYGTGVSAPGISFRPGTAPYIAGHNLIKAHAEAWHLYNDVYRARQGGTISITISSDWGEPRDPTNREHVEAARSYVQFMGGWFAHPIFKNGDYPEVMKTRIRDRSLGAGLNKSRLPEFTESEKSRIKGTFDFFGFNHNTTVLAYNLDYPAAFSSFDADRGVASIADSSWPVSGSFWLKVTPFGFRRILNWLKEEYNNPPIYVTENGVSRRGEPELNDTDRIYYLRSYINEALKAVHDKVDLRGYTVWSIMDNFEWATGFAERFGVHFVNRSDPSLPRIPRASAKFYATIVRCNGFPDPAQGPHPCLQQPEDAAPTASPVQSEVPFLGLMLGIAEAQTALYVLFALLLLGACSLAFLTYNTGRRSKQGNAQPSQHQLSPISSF
The experiment can be described thus: Inhibition of rat intestinal cellobiase (β-glucosidase; natural substrate, glucose release). The experiment is classed as biochemical. As to conditions: read-out: inhibition of intestinal cellobiase at the maximum tested concentration.

Experiment [3] deals with HCV (JFH-1) in Huh7.5 cells. The experiment can be described thus: HCV antiviral assay in Huh7.5 cells (infectious titer by TCID50 assay). Particulars: MOI 2, 96 h, titration of 4 or 50 µm of 3. It is filed as cell-based, hepatitis C virus. Here is the method:
Supplemental Figure 3: Antiviral activity of 4 in human hepatoma Huh7.5 cell line.
(A) Huh7.5 cells were infected with DENV (serotype 2, strain 16681, multiplicity of infection = 0.1) and treated with a titration of ToP-DNJ 4 or 50 µm of tocopherol 3 for 48 h. Infectious virus titer was measured by plaque assay on LLC-MK2 cells. Counts were normalized to 100% for untreated samples.
DENV eﬀect at the concentrations tested. (B) Huh7.5 cells were infected with HCV (JFH-1, multiplicity of infection = 2) and treated with a titration of ToP-DNJ 4 or 50 µm tocopherol 3 for 96 h. Infectious virus titer was measured by TCID50 assay on […]
tested. In both panels, each data point represent the mean of triplicates, with error bars showing standard error of the mean (GraphPad Prism). […]
Huh7.5 cells were seeded in a 96-well plate at a density of 5× 10^3 cells/well in 100 µL growth media. […] The supernatant was harvested, and infectious viral titre assessed immediately in the TCID50 assay.
Huh7.5 cells were seeded in a 96-well plate at a density of 2× 10^4 cells/well in 100 µL of growth media and incubated for 18 h. The supernatants to be evaluated were diluted 1:10 in growth media, and 7 serial half-log10 dilutions were subsequently prepared in the same media. […]
each well was scored as either positive (≥ 5 stained cells) or negative. TCID50 values were calculated according to the method of Reed and Muench.8 […]

Entries after “also recorded” stand apart in the source; their conditions may differ.

As a reminder, the IC50 is the midpoint of a concentration-inhibition curve.

In the case of `CCCCN1CC(O)C(O)C(O)C1CO` [Compound 2, N-butyl-D-1-deoxynojirimycin, reference compound], in experiment [1], the IC50 is 6 µM.
On to `Cc1c(C)c2c(c(C)c1OCCCCCN1CC(O)C(O)C(O)C1CO)CCC(C)(CCCC(C)CCCC(C)CCCC(C)C)O2` (stereo not drawn) [Compound 4, 5′-tocopheroxypentyl-DNJ], for which the inhibition at 50 µM in experiment [2] was below 50%. In addition, the “anti-HCV effect (infectious virus titer)” value in experiment [3] is “neither an anti-DENV nor anti-HCV effect was observed; also recorded: Neither 4 nor 3 showed an anti-HCV eﬀect”.
